Data: patent US20120276070A1, “Induced Pluripotent Stem Cells and Related Methods” (VITRO DIAGNOSITICS, INC., priority 2009, published 2012)
No end group written: not given here.

What was measured:
POU5F1 (Oct3/4) = POU5F1 (Oct3/4) expression after adding small molecules to the adult stem cell culture medium; type: cell-based
native human MSC = assay: Puromycin dose-response / selection: killing of native, non-transfected human MSC; type: cell-based; conditions: 10 μg/ml puromycin in medium
Method: Human mesenchymal stem cells (Vitro Diagnostics, Inc., catalog number SC00A1) were cultured at 7500/cm^2 in T25 flasks (Greiner Bio-One catalog number 690-190) following coating at 2 μg/cm^2 with poly-L-lysine (Sigma Catalog number P1399) using low serum complete MSC cell culture medium (Vitro Diagnostics, Inc., catalog number SC00B1). Cultures were maintained here and throughout this study in a 5% O2, 5% CO2, balance N2 gas environment in a humidified chamber maintained at 37° C. Following two days of continuous culture and at about 40% confluence, the cultures were exposed to 1/15 dilution of the POU5-F1 pseudovirus stock in low serum medium containing 5 μg/ml polybrene (Sigma catalog number H9268). Following 10 hours exposure to the pseudovirus particles, the cultures were washed twice with PBS and cultured in low serum medium (Vitro SC00B1). Selection of stable transfectants began 16 hours later using 3 to 10 μg/ml puromycin (Sigma catalog number P7255) which was a sufficient concentration to kill native, non-transfected human MSC. Single colony clones were established by limited dilution cloning in 96 well plates (Greiner Bio-One, catalog number 655-160) using low serum MSC medium (Vitro Diagnostics, Inc., catalog number SC00B1) containing 10 μg/ml puromycin. […]

[1] = added to the medium at 1 to 2 mM

Compound: Nc1ncn([C@@H]2O[C@H](CO)[C@@H](O)[C@H]2O)c(=O)n1 [5-azacytidine]
- POU5F1 (Oct3/4) expression (POU5F1 (Oct3/4); added to the medium at 0.5 mM, transient periods </=48 hours): increased POU5F1 (Oct3/4) expression

Compound: C[C@]12CCC(=O)C=C1CC[C@@H]1[C@@H]2[C@@H](O)C[C@@]2(C)[C@H]1CC[C@]2(O)C(=O)CO [Hydrocortisone, hydrocortisone]
- POU5F1 (Oct3/4) expression (POU5F1 (Oct3/4); added to the medium, preferably at 80 to 110 nM): increased POU5F1 (Oct3/4) expression

Compound: O=C1O[C@H]([C@@H](O)CO)C(O)=C1O [Vitamin C, ascorbic acid]
- POU5F1 (Oct3/4) expression (POU5F1 (Oct3/4); added to the medium at 60 μM): increased POU5F1 (Oct3/4) expression

Compound: COc1ccc(C[C@H](N)C(=O)N[C@H]2[C@@H](O)[C@H](n3cnc4c(N(C)C)ncnc43)O[C@@H]2CO)cc1 [puromycin]
- effect on wild type MSCs (native human MSC): lethal

Compound: CCCC(=O)[O-].[Na+] [sodium butyrate]
- POU5F1 (Oct3/4) expression (POU5F1 (Oct3/4); [1]): increased POU5F1 (Oct3/4) expression

Compound: CCCC(CCC)C(=O)O [valproic acid]
- POU5F1 (Oct3/4) expression (POU5F1 (Oct3/4); [1]): increased POU5F1 (Oct3/4) expression

Compound: gonadotropin releasing hormone (QHWSYGLRPG; ends and bridges not checked; UniProt P01148 24-33, looked up) [GnRH]
- POU5F1 (Oct3/4) expression (POU5F1 (Oct3/4); added to the medium at 75 pg/ml): increased POU5F1 (Oct3/4) expression
